Assay results reported in US9365589B2, “C5, C6 oxacyclic-fused thiazine dioxide compounds as BACE inhibitors, compositions, and their use” (Merck Sharp & Dohme Corp., priority 2012, dated 2016).
Read-outs that look alike come from different tables or passages of the source.

Assays:
[1] = target: soluble human BACE1 catalytic domain (Homo sapiens (Human), UniProt P56817); test: BACE1 HTRF FRET Assay; format: biochemical; conditions: Ki calculated from IC50 using the Cheng-Prusoff equation; QSY7-APPswe-Eu substrate, pH 5.0
Chain of soluble human BACE1 catalytic domain (P56817 75-416): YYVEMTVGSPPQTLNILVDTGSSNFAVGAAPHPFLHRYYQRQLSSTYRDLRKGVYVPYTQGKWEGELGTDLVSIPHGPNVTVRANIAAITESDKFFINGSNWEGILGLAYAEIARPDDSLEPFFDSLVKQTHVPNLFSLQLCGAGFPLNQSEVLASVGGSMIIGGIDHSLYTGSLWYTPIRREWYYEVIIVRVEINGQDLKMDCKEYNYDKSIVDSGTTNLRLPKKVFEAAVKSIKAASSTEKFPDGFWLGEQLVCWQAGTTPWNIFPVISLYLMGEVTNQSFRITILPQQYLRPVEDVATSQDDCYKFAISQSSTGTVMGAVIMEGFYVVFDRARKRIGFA
Source text: A homogeneous time-resolved FRET assay can be used to determine IC50 values for inhibitors of the soluble human BACE1 catalytic domain. This assay monitors the increase of 620 nm fluorescence that resulted from BACE1 cleavage of an APPswedish APP^swe mutant peptide FRET substrate (QSY7-[…]-Europium-amide). This substrate contains an N-terminal QSY7 moiety that serves as a quencher of the C-terminal Europium fluorophore (620 nm Em). In the absence of enzyme activity, 620 nm fluorescence is low in the assay and increased linearly over 3 hours in the presence of uninhibited BACE1 enzyme Inhibition of BACE1 cleavage of the QSY7-APP^swe-Eu substrate by inhibitors is manifested as a suppression of 620 nm fluorescence.
Reactions are initiated by addition of 10 μl of 600 nM QSY7-APP^swe-Eu substrate (200 nM final) to give a final reaction volume of 30 μl in a 384 well Nunc HTRF plate. The reactions are incubated at 30° C. for 1.5 hours. The 620 nm fluorescence is then read on a Rubystar HTRF plate reader (BMG Labtechnologies) using a 50 millisecond delay followed by a 400 millisecond acquisition time window Inhibitor IC50 values are derived from non-linear regression analysis of concentration response curves.

[2] = target: purified human autoBACE-2 (Homo sapiens (Human), UniProt Q9Y5Z0); test: BACE-2 Assay (BACE-HTRF assay); format: biochemical
Chain of purified human autoBACE-2 (Q9Y5Z0 63-473 limits assumed): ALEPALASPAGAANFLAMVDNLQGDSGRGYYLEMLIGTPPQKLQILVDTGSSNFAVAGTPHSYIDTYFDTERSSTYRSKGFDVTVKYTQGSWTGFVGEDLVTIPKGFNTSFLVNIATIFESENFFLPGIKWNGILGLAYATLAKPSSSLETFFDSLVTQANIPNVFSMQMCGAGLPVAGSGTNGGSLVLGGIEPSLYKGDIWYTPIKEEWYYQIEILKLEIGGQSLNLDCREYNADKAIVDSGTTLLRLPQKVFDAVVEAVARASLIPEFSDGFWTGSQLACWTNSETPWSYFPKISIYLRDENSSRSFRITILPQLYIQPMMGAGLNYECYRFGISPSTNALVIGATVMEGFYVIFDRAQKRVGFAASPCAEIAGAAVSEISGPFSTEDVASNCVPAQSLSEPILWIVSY
Experimental: DMSO is present at 5% final concentration in the assay. Following laser excitation of sample wells at 320 nm, the fluorescence signal at 620 nm is collected for 400 ms following a 50 μs delay on a RUBYstar HTRF plate reader (BMG Labtechnologies). Raw RFU data is normalized to maximum (1.0 nM BACE/DMSO) and minimum (no enzyme/DMSO) RFU values. […] The Ki values are calculated from the IC50 using the Cheng-Prusoff equation.

Row | SMILES | Ki [1] [nM] | Ki ([2]; read-out: BACE2 Ki) [nM] | Ki ([2]; BACE2 Ki (nM)) [nM]
1 | Cc1cc(C(=O)Nc2ccc(F)c([C@]34COC[C@H]3S(=O)(=O)C(C)(C)C(=N)N4)c2)no1 [Example 1f] | 201 | 24 | –
2 | CC1(C)C(=N)N[C@@]2(c3cc(NC(=O)C(F)F)ccc3F)COC[C@H]2S1(=O)=O [Example 1n] | 258 | 33 | –
3 | CC1(C)C(=N)N[C@@]2(c3cc(NC(=O)c4ccc(F)cn4)ccc3F)COC(CF)[C@H]2S1(=O)=O (single isomer, unassigned) [Example 4b] | 42 | – | 18
4 | CC1(C)C(=N)N[C@@]2(c3cc(NC(=O)c4ccc(C(F)(F)F)cn4)ccc3F)COC[C@H]2S1(=O)=O [Example 1aa] | 3 | 8 | –
5 | C#CCOc1ccc(C(=O)Nc2ccc(F)c([C@]34COC[C@H]3S(=O)(=O)C(C)(C)C(=N)N4)c2)nc1 [Example 1y] | 1 | 7 | –
6 | CO[C@@H](C)C(=O)Nc1ccc(F)c([C@]23COC[C@H]2S(=O)(=O)C(C)(C)C(=N)N3)c1 [Example 1o] | 213 | 42 | –
7 | CC1(C)C(=N)N[C@@]2(c3cc(NC(=O)c4ccc(C#N)cn4)ccc3F)COC[C@H]2S1(=O)=O [Example 1r] | 1 | 1 | –
8 | COCC(=O)Nc1ccc(F)c([C@]23COC[C@H]2S(=O)(=O)C(C)(C)C(=N)N3)c1 [Example 1m] | 74 | 5 | –
9 | CC1(C)C(=N)N[C@@]2(c3cc(NC(=O)c4ccc(OCF)cn4)ccc3F)COC[C@H]2S1(=O)=O [Example 1x] | 3 | 2 | –
10 | CC1(C)C(=N)N[C@@]2(c3cc(NC(=O)c4ccc(Cl)cn4)ccc3F)COC[C@H]2S1(=O)=O [Example 1b] | 2.5 | 1 | –
11 | C[C@]1(c2ccc(F)cc2)C(=N)N[C@@]2(c3cc(NC(=O)c4ccc(F)cn4)ccc3F)COC[C@H]2S1(=O)=O [Example 8b] | 1 | – | 1
12 | C#CCOc1cnc(C(=O)Nc2ccc(F)c([C@]34COC[C@H]3S(=O)(=O)C(C)(C)C(=N)N4)c2)cn1 [Example 1w] | 1 | 2 | –
13 | COc1cnc(C(=O)Nc2ccc(F)c([C@]34COC(CF)[C@H]3S(=O)(=O)C(C)(C)C(=N)N4)c2)cn1 (single isomer, unassigned) [Example 4h] | – | – | 476
14 | COc1cnc(C(=O)Nc2ccc(F)c([C@]34COC(CF)[C@H]3S(=O)(=O)C(C)(C)C(=N)N4)c2)cn1 (single isomer, unassigned) [Example 4e] | – | – | 11
15 | COc1cnc(C(=O)Nc2ccc(F)c([C@]34COC[C@H]3S(=O)(=O)C(C)(C)C(=N)N4)c2)c(C)c1 [Example 1s] | 4 | 1 | –
16 | Cn1ccc(C(=O)Nc2ccc(F)c([C@]34COC[C@H]3S(=O)(=O)C(C)(C)C(=N)N4)c2)n1 [Example 1e] | 13 | 2 | –
17 | COc1cnc(C(=O)Nc2ccc(F)c([C@]34COC[C@H]3S(=O)(=O)C(C)(C)C(=N)N4)c2)c(C)n1 [Example 1t] | 10 | 6 | –
18 | CC1(C)C(=N)N[C@@]2(c3cc(NC(=O)c4cnc(OCCF)cn4)ccc3F)COC[C@H]2S1(=O)=O [Example 1h] | 7 | 18 | –

Row | SMILES | Ki [1] [nM] | Ki ([2]; read-out: BACE2 Ki) [nM] | Ki ([2]; BACE2 Ki (nM)) [nM]
19 | CC1(C)C(=N)N[C@@]2(c3cc(NC(=O)c4cnc(C(F)(F)F)cn4)ccc3F)COC[C@H]2S1(=O)=O [Example 1q] | 13 | 35 | –
20 | Cc1cc(C(=O)Nc2ccc(F)c([C@]34COC[C@H]3S(=O)(=O)C(C)(C)C(=N)N4)c2)on1 [Example 1i] | 559 | 93 | –
21 | CO[C@H](C)C(=O)Nc1ccc(F)c([C@]23COC[C@H]2S(=O)(=O)C(C)(C)C(=N)N3)c1 [Example 1p] | 151 | 16 | –
22 | COc1ccc(C(=O)Nc2ccc(F)c([C@]34COC[C@H]3S(=O)(=O)C(C)(C)C(=N)N4)c2)nc1 [Example 1c] | 5.8 | 3 | –
23 | CC1(C)C(=N)N[C@@]2(c3cc(NC(=O)c4ccc(F)cn4)ccc3F)COC(CF)[C@H]2S1(=O)=O (single isomer, unassigned) [Example 4a] | 3 | – | 1
24 | COc1cnc(C(=O)Nc2ccc(F)c([C@]34COC[C@H]3S(=O)(=O)C(C)(C)C(=N)N4)c2)cn1 [Example 1d] | 6.2 | 5 | –
25 | C[C@@]1(c2ccc(F)cc2)C(=N)N[C@@]2(c3cc(NC(=O)c4ccc(F)cn4)ccc3F)COC[C@H]2S1(=O)=O [Example 8a] | 84 | – | 9
26 | C[C@@]1(C2CC2)C(=N)N[C@@]2(c3cc(NC(=O)c4ccc(F)cn4)ccc3F)COC[C@H]2S1(=O)=O [Example 13a] | 39 | 6 | –
27 | CC1(C)C(=N)N[C@@]2(c3cc(NC(=O)c4cn5ccsc5n4)ccc3F)COC[C@H]2S1(=O)=O [Example 1g] | 25 | 3 | –
28 | Cc1nc(C(=O)Nc2ccc(F)c([C@]34COC[C@H]3S(=O)(=O)C(C)(C)C(=N)N4)c2)c(C)o1 [Example 1l] | 6 | 1 | –
29 | CC1(C)C(=N)N[C@@]2(c3cc(NC(=O)c4cnsn4)ccc3F)COC[C@H]2S1(=O)=O [Example 1v] | 8 | 1 | –
30 | CC1(C)C(=N)N[C@@]2(c3cc(NC(=O)c4ccc(F)cn4)ccc3F)COC[C@H]2S1(=O)=O [Example 1a] | 3.5 | 1 | –
31 | C[C@]1(C2CC2)C(=N)N[C@@]2(c3cc(NC(=O)c4ccc(F)cn4)ccc3F)COC[C@H]2S1(=O)=O [Example 13b] | 62 | 11 | –
32 | Cn1cc(C(=O)Nc2ccc(F)c([C@]34COC[C@H]3S(=O)(=O)C(C)(C)C(=N)N4)c2)c(C(F)(F)F)n1 [Example 1j] | 1100 | 309 | –
33 | CC1(C)C(=N)N[C@@]2(c3cc(NC(=O)c4ncc(Cl)cc4F)ccc3F)COC[C@H]2S1(=O)=O [Example 1k] | 3 | 1 | –
34 | Cc1cc(C#N)cnc1C(=O)Nc1ccc(F)c([C@]23COC[C@H]2S(=O)(=O)C(C)(C)C(=N)N3)c1 [Example 1u] | 1 | 1 | –
35 | CC1(C)C(=N)N[C@@]2(c3cc(NC(=O)c4ccn(C(F)F)n4)ccc3F)COC[C@H]2S1(=O)=O [Example 1z] | 1 | 1 | –
